Where two headings read alike, the source gives them in different places.

Test [1] concerns MV4;11 (acute myelocytic leukemia). Kind of test: MTT cytotoxicity assay, leukemic cell line MV4;11. Format: cell-based. As to conditions: three days. The text has this:
(§1) Cytotoxicity of the compounds is the major property determining their antileukemic efficacy in vivo. One of the parameters used, as the basis for cytotoxicity assays, is the metabolic activity of viable cells. For example, a microtiter assay, which uses (3-(4,5-dimethylthiazol-2-yl)-2,5-diphenyltetrazolium bromide (MTT), is widely used to quantitate cell proliferation and cytotoxicity. This assay is widely used in drug screening programs and in chemosensitivity testing. Because only metabolically active living cells reduce MTT to correspond purple formazan dye, these assays detect viable cells exclusively. The quantity of reduced MTT corresponds to the number of vital cells in the culture.
(§2) The compounds were assayed using the following leukemic cell lines: K562 (human chronic myelogenous leukaemia), HL60 (human promyelocytic leukaemia), CEM (human lymphoblastoid leukaemia), THP1 (human monocytic cell line), MV4; 11 (acute myelocytic leukemia). All cell lines were grown in RPMI medium supplemented with fetal bovine serum and L-glutamine and maintained at 37° C. in a humidified atmosphere with 5% CO2. For cytotoxicity assays, 2000-5000 cells were seeded into each well of 96 well plate, allowed to stabilize for at least 8 h and then tested compounds were added at various concentrations ranging from 100 to 0.01 μM in triplicates. After three days, MTT solution (5 mg/ml; Sigma, St. Louis, USA) was added to cells and medium was replaced with DMSO after five hours. The absorbance was measured at 620 nm by employing a microplate reader. MTT assays were repeated 3 times for each drug application and untreated cells were used as reference.
Background: Tetrazolium dyes change colour on reduction, which living cells bring about.

In test [2] the test system is HCT116 (colon carcinoma). Kind of test: MTT cytotoxicity assay, solid cancer cell line HCT116. Format: cell-based. As to conditions: Homo sapiens, HCT-116, 72 h, three days. The method, then: as §2, with “following” for “following leukemic”, “G361 (malignant melanoma), MCF7 (breast adenocarcinoma), PLC/PRF/5 (liver hepatoma), PANC-1 (pancreatic carcinoma) and HCT116 (colon carcinoma).” for “K562 (human chronic myelogenous leukaemia), HL60 (human promyelocytic leukaemia), CEM (human lymphoblastoid leukaemia), THP1 (human monocytic cell line), MV4; 11 (acute myelocytic leukemia).”, “DMEM” for “RPMI”, “4000-10000” for “2000-5000”, “of a” for “of”, “16” for “8”

The subject of test [3] is K562 (human chronic myelogenous leukaemia). The test is described as follows: MTT cytotoxicity assay, leukemic cell line K562. The settings on record: three days. Format: cell-based.
Text: as §1, §2

Test [4] relates to CEM (human lymphoblastoid leukaemia). The test is described as follows: MTT cytotoxicity assay, leukemic cell line CEM. Type of test: cell-based. As to conditions: three days.
Text: as §1, §2

The subject of test [5] is PANC-1 (pancreatic carcinoma). Kind of test: MTT cytotoxicity assay, solid cancer cell line PANC-1. Type of test: cell-based. As to conditions: Homo sapiens, PANC-1, 72 h, three days. Here is the method: as §2, with “following” for “following leukemic”, “G361 (malignant melanoma), MCF7 (breast adenocarcinoma), PLC/PRF/5 (liver hepatoma), PANC-1 (pancreatic carcinoma) and HCT116 (colon carcinoma).” for “K562 (human chronic myelogenous leukaemia), HL60 (human promyelocytic leukaemia), CEM (human lymphoblastoid leukaemia), THP1 (human monocytic cell line), MV4; 11 (acute myelocytic leukemia).”, “DMEM” for “RPMI”, “4000-10000” for “2000-5000”, “of a” for “of”, “16” for “8”

Test [6] deals with THP1 (human monocytic cell line). The test is described as follows: MTT cytotoxicity assay, leukemic cell line THP1. Type of test: cell-based. The settings on record: three days.
Text: as §1, §2

The test system of test [7] is G361 (malignant melanoma). Kind of test: MTT cytotoxicity assay, solid cancer cell line G361. Type of test: cell-based. As to conditions: Homo sapiens, G-361, 72 h, three days. The method, then:
as §2, with “following” for “following leukemic”, “G361 (malignant melanoma), MCF7 (breast adenocarcinoma), PLC/PRF/5 (liver hepatoma), PANC-1 (pancreatic carcinoma) and HCT116 (colon carcinoma).” for “K562 (human chronic myelogenous leukaemia), HL60 (human promyelocytic leukaemia), CEM (human lymphoblastoid leukaemia), THP1 (human monocytic cell line), MV4; 11 (acute myelocytic leukemia).”, “DMEM” for “RPMI”, “4000-10000” for “2000-5000”, “of a” for “of”, “16” for “8”

For test [8], the system named is HL60 (human promyelocytic leukaemia). Kind of test: MTT cytotoxicity assay, leukemic cell line HL60. Format: cell-based. The settings on record: three days.
Text: as §1, §2

The subject of test [9] is MCF7 (breast adenocarcinoma). The test is described as follows: MTT cytotoxicity assay, solid cancer cell line MCF7. Format: cell-based. The settings on record: Homo sapiens, MCF7, 72 h, three days. Here is the method: as §2, with “following” for “following leukemic”, “G361 (malignant melanoma), MCF7 (breast adenocarcinoma), PLC/PRF/5 (liver hepatoma), PANC-1 (pancreatic carcinoma) and HCT116 (colon carcinoma).” for “K562 (human chronic myelogenous leukaemia), HL60 (human promyelocytic leukaemia), CEM (human lymphoblastoid leukaemia), THP1 (human monocytic cell line), MV4; 11 (acute myelocytic leukemia).”, “DMEM” for “RPMI”, “4000-10000” for “2000-5000”, “of a” for “of”, “16” for “8”

Test [10] has as its system HUVECs (human umbilical vein endothelial cells). The test is described as follows: HUVEC proliferation assay (crystal violet). Type of test: cell-based. As to conditions: 72 h, read-out: Inhibition of proliferation (EC50). The method, then: To verify that novel compounds have anti-vascularisation properties, we analyzed their influence on the proliferation and migration of HUVECs. HUVECs (human umbilical vein endothelial cells) were purchased from Promocell (Heidelberg, Germany) and cultured in endothelial cell growth medium (ECGM, Promocell, Heidelberg, Germany) containing 10% FCS (Biochrom, Berlin, Germany). Experiments were performed using cells at passage 3.
For proliferation assay, 1.5×10^3 HUVECs were cultured for 24 h. Afterwards, cells were either left untreated or treated with novel compounds for 72 h. Proliferation assay was performed using crystal violet as described previously (Koltermann et al. 2007, Cell Mol. Life Sci. 64:1715-1722).

For test [11], the target named is T1, CDK5/p35 (Homo sapiens, UniProt Q00535).
T1 construct: purchased ProQinase GmbH
The test is described as follows: CDK5/p35 kinase inhibition (33P-ATP, histone H1). As to conditions: 0.15 μM ATP. Type of test: biochemical. Here is the method:
CDK2/Cyclin E kinase was produced in Sf9 insect cells via baculoviral infection and purified on a NiNTA column (Qiagen). […] CDK5/p35 was purchased from ProQinase GmbH.
The reactions were stopped by adding 5 μL of 3% aq H3PO4. Aliquots were spotted onto P-81 phosphocellulose (Whatman), washed 3× with 0.5% aq H3PO4 and finally air-dried.

The test system of test [12] is PLC/PRF/5 (liver hepatoma). The test is described as follows: MTT cytotoxicity assay, solid cancer cell line PLC/PRF/5. Type of test: cell-based. As to conditions: Homo sapiens, PLC-PRF-5, 72 h, three days. Here is the method: as §2, with “following” for “following leukemic”, “G361 (malignant melanoma), MCF7 (breast adenocarcinoma), PLC/PRF/5 (liver hepatoma), PANC-1 (pancreatic carcinoma) and HCT116 (colon carcinoma).” for “K562 (human chronic myelogenous leukaemia), HL60 (human promyelocytic leukaemia), CEM (human lymphoblastoid leukaemia), THP1 (human monocytic cell line), MV4; 11 (acute myelocytic leukemia).”, “DMEM” for “RPMI”, “4000-10000” for “2000-5000”, “of a” for “of”, “16” for “8”

T1 sequence (Q00535 whole entry): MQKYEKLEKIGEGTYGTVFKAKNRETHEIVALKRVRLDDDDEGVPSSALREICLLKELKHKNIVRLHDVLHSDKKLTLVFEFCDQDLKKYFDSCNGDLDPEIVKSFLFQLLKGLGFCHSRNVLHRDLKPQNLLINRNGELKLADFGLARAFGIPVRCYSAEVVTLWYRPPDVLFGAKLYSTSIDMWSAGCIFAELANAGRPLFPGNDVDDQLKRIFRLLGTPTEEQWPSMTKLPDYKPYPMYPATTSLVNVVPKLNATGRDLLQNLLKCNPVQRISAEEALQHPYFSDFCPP
T1 sequence (Q15078 whole entry partner): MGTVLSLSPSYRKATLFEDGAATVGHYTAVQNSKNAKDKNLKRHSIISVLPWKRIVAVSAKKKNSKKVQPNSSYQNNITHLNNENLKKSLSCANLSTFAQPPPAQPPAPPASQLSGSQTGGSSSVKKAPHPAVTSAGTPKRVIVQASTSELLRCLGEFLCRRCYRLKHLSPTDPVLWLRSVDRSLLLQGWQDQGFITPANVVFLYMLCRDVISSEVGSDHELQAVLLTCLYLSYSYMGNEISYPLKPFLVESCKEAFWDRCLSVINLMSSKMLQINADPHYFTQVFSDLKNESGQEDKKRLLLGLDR

As for `COc1ccc(CNc2nc(NCc3ccc(-c4ccccn4)cc3)c3n[nH]c(C(C)C)c3n2)cc1` [Compound 73], the concentration for half-maximal inhibition (IC50) (usually the concentration that gives 50% inhibition) in [1] (Homo sapiens, MV4-11, 72 h) amounted to 0.97 µM; in [2], 0.99 µM; in test [3] (Homo sapiens, K562, 72 h), 3.95 µM; in test [4] (Homo sapiens, 72 h) it was 0.89 µM; in test [5] it was 0.44 µM; in test [6] (Homo sapiens, THP-1, 72 h), 0.67 µM. Further, the IC50 turned out to be 2.62 µM in test [7]; 0.78 µM in test [8] (Homo sapiens, HL-60, 72 h); 5.3 µM in test [9]; 4.42 µM in test [11]; 3.94 µM in [12]. For the same compound, the EC50 in [10] (Homo sapiens, HUVEC) was 2280 nM.
For the compound `CSc1nc(NCc2ccc(-c3ccccn3)cc2)c2[nH]nc(C(C)C)c2n1` [Compound 5], the IC50 in [1] (Homo sapiens, MV4-11, 72 h) worked out at 0.6 µM; in test [2], 1.3 µM; in [3] (Homo sapiens, K562, 72 h) it was 0.78 µM; in test [4] (Homo sapiens, 72 h), 0.94 µM; in [5], 0.65 µM; in test [6] (Homo sapiens, THP-1, 72 h), 0.32 µM. The IC50 amounted to 0.24 µM in test [7]; 0.86 µM in test [8] (Homo sapiens, HL-60, 72 h); 0.81 µM in test [9]; 0.229 µM in test [11]; 0.7 µM in test [12]. The EC50 in test [10] (Homo sapiens, HUVEC) was found to be 234 nM.
In the case of `CCN(CC)CCNc1nc(NCc2ccc(-c3ccccn3)cc2)c2[nH]nc(C(C)C)c2n1` [Compound 50], the IC50 in test [1] was 0.17 µM; in test [3] it was 0.18 µM; in [4], 0.11 µM; in test [6], 0.08 µM; in test [8], 0.14 µM.
On to `CC(C)c1n[nH]c2c(NCc3ccc(-c4ccccn4)cc3)nc(NCCCN)nc12` [Compound 41], for which the 50% inhibitory concentration (IC50) worked out at 0.35 µM in [1]; 0.47 µM in test [3]; 0.43 µM in test [4]; 0.27 µM in test [6]; 0.56 µM in test [8].
Consider `CC(C)c1[nH]nc2c(NCc3ccc(-c4ccccn4)cc3)nc(N[C@H]3CC[C@H](N)CC3)nc12` [Compound 67], for which the half-maximal inhibitory concentration (IC50) came out at 0.19 µM in test [1] (Homo sapiens, MV4-11, 72 h); 0.37 µM in test [2]; 0.59 µM in test [3] (Homo sapiens, K562, 72 h); 0.23 µM in test [4] (Homo sapiens, 72 h); 0.5 µM in [5]; 0.3 µM in test [6] (Homo sapiens, THP-1, 72 h). The IC50 in test [7] is 0.36 µM; in [8] (Homo sapiens, HL-60, 72 h), 0.24 µM; in test [9], 0.47 µM; in test [11], 0.179 µM; in test [12], 0.29 µM. For the same compound, in test [10] (Homo sapiens, HUVEC), the EC50 came out at 69 nM.
As to `CC(C)c1n[nH]c2c(NCc3ccc(-c4ccccn4)cc3)nc(NCc3ccccc3Cl)nc12` [Compound 81], in test [10], the EC50 was found to be 1330 nM.
As for `CC(C)c1n[nH]c2c(NCc3ccc(-c4ccccn4)cc3)nc(NCC(O)CO)nc12` (stereo not shown) [Compound 35], the 50% inhibitory concentration (IC50) in test [1] (Homo sapiens, MV4-11, 72 h) came to 0.2 µM; in test [3] (Homo sapiens, K562, 72 h) it was 0.24 µM; in test [4] (Homo sapiens, 72 h) it was 0.18 µM; in [6] (Homo sapiens, THP-1, 72 h), 0.26 µM; in test [8] (Homo sapiens, HL-60, 72 h), 0.17 µM; in test [11], 0.017 µM.
For the compound `CC(C)c1n[nH]c2c(NCc3ccc(-c4ccccn4)cc3)nc(N[C@H](C)CCO)nc12` [Compound 31], the half-maximal inhibitory concentration (IC50) stood at 0.31 µM in test [1]; 0.39 µM in test [3]; 0.21 µM in [4]; 0.26 µM in test [6]; 0.24 µM in test [8].
As to `CC(C)c1n[nH]c2c(NCc3ccc(-c4ccccn4)cc3)nc(NCC(C)N3CC3)nc12` (stereo not shown) [Compound 57], the half-inhibitory concentration (IC50) is 0.53 µM in test [1]; 0.44 µM in test [3]; 0.27 µM in test [4]; 0.29 µM in [6]; 0.32 µM in [8].
Consider `CC(C)c1n[nH]c2c(NCc3ccc(-c4ccccn4)cc3)nc(S(C)(=O)=O)nc12` [Compound 8, 3-Isopropyl-5-methylsulfonyl-7-[4-(2-pyridyl)benzyl]amino-1(2)H-pyrazolo[4,3-d]pyridine], for which, in test [10], the EC50 was found to be 569 nM.
`CC(C)c1n[nH]c2c(NCc3ccc(-c4ccccn4)cc3)ncnc12` [Compound 2]: the IC50 amounted to 0.47 µM in [1] (Homo sapiens, MV4-11, 72 h); 1.2 µM in test [2]; 0.8 µM in test [4] (Homo sapiens, 72 h); 0.46 µM in test [5]; 0.56 µM in test [6] (Homo sapiens, THP-1, 72 h); 0.78 µM in [7]. Further, the IC50 in [8] (Homo sapiens, HL-60, 72 h) came to 0.92 µM; in [11], 0.183 µM; in [12], 0.97 µM.

(Values after patent US9957273B2, “5-substituted 7- [4-(2-pyridyl)phenylmethylamino] -3-isopropylpyrazolo4,3-D]pyrimidine derivatives, use thereof as medicaments, and pharmaceutical compositions” (USTAV EXPERIMENTALNI BOTANIKY AV CR, V.V.I., priority 2015, dated 2018).)
